Assay results: US4346076A, “Bis-tetrazoylmethyl substituted cephalosporin antibiotics” (Eli Lilly and Company, priority 1980, dated 1982)
Values after ≈ are worked out from the molar mass of the structure shown. Like-named read-outs stand apart in the source and are kept apart here.

Columns and labels:
Assay in all cases: in vitro antibacterial activity, agar dilution
Format in all cases: cell-based
[1] = test system: Streptococcus Group D; settings: read-out: Minimum Inhibitory Concentration
Source text: (§1) The bis-tetrazol-thiomethyl substituted cephalosporins of this invention are broad spectrum antibiotics which inhibit the growth of both gram positive and gram negative microorganisms which are pathogenic to man and animals. […] The following Table 2 lists the minimum inhibitory concentrations of representative compounds of the invention.
(§2) The data in TABLE 2 were obtained in the agar dilution test method using Mueller-Hinton agar containing two percent Supplement C (Difco). Serial two-fold dilutions were run with the highest concentration on test at 128 mcg/ml.

[2] = test system: Enterobacter aerogenes; settings: Klebsiella aerogenes, read-out: Minimum Inhibitory Concentration
Source text: as §1, §2

[3] = test system: Streptococcus Group A; settings: strain C203; read-out: Minimum Inhibitory Concentration
Source text: as §1, §2

[4] = test system: Proteus morganii; settings: Morganella morganii; strain PR15; read-out: Minimum Inhibitory Concentration
Source text: as §1, §2

[5] = test system: Staphylococcus aureus
Source text: as §1, §2

[6] = test system: Citrobacter freundii; settings: strain CF17, read-out: Minimum Inhibitory Concentration
Source text: as §1, §2

[7] = test system: Proteus rettgeri; settings: Providencia rettgeri, read-out: Minimum Inhibitory Concentration
Source text: as §1, §2

[8] = test system: Bordetella bronchoseptica; settings: strain 16, read-out: Minimum Inhibitory Concentration
Source text: as §1, §2

[9] = test system: Proteus inconstans; settings: Providencia alcalifaciens; strain PR33; read-out: Minimum Inhibitory Concentration
Source text: as §1, §2

[10] = test system: Pseudomonas aeruginosa
Source text: as §1, §2

[11] = test system: Staphylococcus epidermidis
Source text: as §1, §2

[12] = test system: Haemophilus influenzae; settings: Haemophilus influenzae, read-out: Minimum Inhibitory Concentration
Source text: as §1, §2

[13] = test system: Shigella sonnei; settings: strain N9, read-out: Minimum Inhibitory Concentration
Source text: as §1, §2

[14] = test system: Serratia marcescens
Source text: as §1, §2

[15] = test system: Salmonella sp.
Source text: as §1, §2

[16] = test system: Enterobacter cloacae
Source text: as §1, §2

[17] = test system: Streptococcus pneumoniae; settings: strain PARK, read-out: Minimum Inhibitory Concentration
Source text: as §1, §2

[18] = test system: Klebsiella sp.
Source text: as §1, §2

[19] = test system: Escherichia coli
Source text: as §1, §2

[20] = read-out: Minimum Inhibitory Concentration
[21] = strain V41, read-out: Minimum Inhibitory Concentration
[22] = strain X1.1, read-out: Minimum Inhibitory Concentration
[23] = strain X400, read-out: Minimum Inhibitory Concentration
[24] = strain Ps18, read-out: Minimum Inhibitory Concentration
[25] = strain X239, read-out: Minimum Inhibitory Concentration
[26] = strain X528, read-out: Minimum Inhibitory Concentration
[27] = strain EPI1, read-out: Minimum Inhibitory Concentration
[28] = strain EPI2, read-out: Minimum Inhibitory Concentration
[29] = strain SE3, read-out: Minimum Inhibitory Concentration
[30] = strain X93, read-out: Minimum Inhibitory Concentration
[31] = strain 1335, read-out: Minimum Inhibitory Concentration
[32] = strain X514, read-out: Minimum Inhibitory Concentration
[33] = strain 265A, read-out: Minimum Inhibitory Concentration
[34] = strain EB5, read-out: Minimum Inhibitory Concentration
[35] = strain KAE, read-out: Minimum Inhibitory Concentration
[36] = strain X26, read-out: Minimum Inhibitory Concentration
[37] = strain EC14, read-out: Minimum Inhibitory Concentration
[38] = strain N10, read-out: Minimum Inhibitory Concentration
[39] = strain TEM, read-out: Minimum Inhibitory Concentration

| Structure (SMILES) | MIC ([1]; strain 9960) | MIC ([1]; strain X66) | MIC ([2]; strain C32) | MIC ([2]; strain EB17) | MIC ([2]; strain X68) | MIC [3] | MIC [4] | MIC [5, 20] | MIC [5, 21] | MIC [5, 22] | MIC [5, 23] | MIC [6] | MIC ([7]; strain C24) | MIC ([7]; strain PR7) | MIC [8] | MIC [9] | MIC [10, 24] | MIC [10, 25] | MIC [10, 26] | MIC [11, 27] | further results |
| --- | --- | --- | --- | --- | --- | --- | --- | --- | --- | --- | --- | --- | --- | --- | --- | --- | --- | --- | --- | --- | --- |
| CO/N=C(\C(=O)N[C@@H]1C(=O)N2C(C(=O)O)=C(CSc3nnn(Cc4nnn[nH]4)n3)CS[C@H]12)c1csc(N)n1 [G, syn 7β-[α-methoximino-α-(2-amino-1,3-thiazol-4-yl)-acetamido]-3-[2-(1H-tetrazol-5-ylmethyl)-2H-tetrazol-5-ylthiomethyl]-3-cephem-4-carboxylic acid] | > 128 µg/mL | > 128 µg/mL | 0.25 µg/mL (≈ 0.431 µM) | 0.25 µg/mL (≈ 0.431 µM) | 0.06 µg/mL (≈ 0.104 µM) | 0.03 µg/mL (≈ 0.0518 µM) | 0.5 µg/mL (≈ 0.863 µM) | 32 µg/mL (≈ 55.2 µM) | 8 µg/mL (≈ 13.8 µM) | 4 µg/mL (≈ 6.9 µM) | > 128 µg/mL | 64 µg/mL (≈ 110 µM) | 2 µg/mL (≈ 3.45 µM) | 0.03 µg/mL (≈ 0.0518 µM) | 64 µg/mL (≈ 110 µM) | 1 µg/mL (≈ 1.73 µM) | 32 µg/mL (≈ 55.2 µM) | 16 µg/mL (≈ 27.6 µM) | 16 µg/mL (≈ 27.6 µM) | 32 µg/mL (≈ 55.2 µM) | MIC [11, 28]: 64 µg/mL (≈ 110 µM); MIC ([12]; strain 251, resistant strain): 0.06 µg/mL (≈ 0.104 µM); MIC ([12]; strain Brun, sensitive strain): 0.06 µg/mL (≈ 0.104 µM); MIC [13]: 2 µg/mL (≈ 3.45 µM); MIC [14, 29]: 2 µg/mL (≈ 3.45 µM); MIC [14, 30]: 0.25 µg/mL (≈ 0.431 µM); MIC [15, 31]: 0.5 µg/mL (≈ 0.863 µM); MIC [15, 32]: 0.125 µg/mL (≈ 0.216 µM); MIC [16, 33]: 64 µg/mL (≈ 110 µM); MIC [16, 34]: 2 µg/mL (≈ 3.45 µM); MIC [17]: 0.03 µg/mL (≈ 0.0518 µM); MIC [18, 35]: 8 µg/mL (≈ 13.8 µM); MIC [18, 36]: 0.125 µg/mL (≈ 0.216 µM); MIC [19, 37]: 0.125 µg/mL (≈ 0.216 µM); MIC [19, 38]: 0.25 µg/mL (≈ 0.431 µM); MIC [19, 39]: 0.125 µg/mL (≈ 0.216 µM) |
| CCN1CCN(C(=O)N[C@@H](C(=O)N[C@@H]2C(=O)N3C(C(=O)O)=C(CSc4nnnn4Cc4nnn[nH]4)CS[C@H]23)c2ccc(O)cc2)C(=O)C1=O [D, 7-[α-(4-Ethylpiperazin-2,3-dione-1-ylcarbonylamino)-α-(4-hydroxyphenyl)acetamido]-3-[1-(1H-tetrazole-5-ylmethyl)-1H-tetrazole-5-ylthiomethyl]-3-cephem-4-carboxylic acid] | 64 µg/mL (≈ 89.7 µM) | 128 µg/mL (≈ 179 µM) | 2 µg/mL (≈ 2.8 µM) | 0.5 µg/mL (≈ 0.701 µM) | 0.25 µg/mL (≈ 0.35 µM) | 0.5 µg/mL (≈ 0.701 µM) | 1 µg/mL (≈ 1.4 µM) | 32 µg/mL (≈ 44.8 µM) | 16 µg/mL (≈ 22.4 µM) | 4 µg/mL (≈ 5.6 µM) | > 128 µg/mL | 32 µg/mL (≈ 44.8 µM) | 8 µg/mL (≈ 11.2 µM) | 4 µg/mL (≈ 5.6 µM) | 32 µg/mL (≈ 44.8 µM) | 2 µg/mL (≈ 2.8 µM) | 8 µg/mL (≈ 11.2 µM) | 4 µg/mL (≈ 5.6 µM) | 8 µg/mL (≈ 11.2 µM) | 8 µg/mL (≈ 11.2 µM) | MIC [11, 28]: 32 µg/mL (≈ 44.8 µM); MIC ([12]; strain 251, resistant strain): 0.015 µg/mL (≈ 0.021 µM); MIC ([12]; strain Brun, sensitive strain): 0.015 µg/mL (≈ 0.021 µM); MIC [13]: 0.25 µg/mL (≈ 0.35 µM); MIC [14, 29]: 4 µg/mL (≈ 5.6 µM); MIC [14, 30]: 1 µg/mL (≈ 1.4 µM); MIC [15, 31]: 4 µg/mL (≈ 5.6 µM); MIC [15, 32]: 2 µg/mL (≈ 2.8 µM); MIC [16, 33]: 128 µg/mL (≈ 179 µM); MIC [16, 34]: 2 µg/mL (≈ 2.8 µM); MIC [17]: 0.25 µg/mL (≈ 0.35 µM); MIC [18, 35]: > 128 µg/mL; MIC [18, 36]: 1 µg/mL (≈ 1.4 µM); MIC [19, 37]: 0.125 µg/mL (≈ 0.175 µM); MIC [19, 38]: 2 µg/mL (≈ 2.8 µM); MIC [19, 39]: 16 µg/mL (≈ 22.4 µM) |
| Cn1nnnc1Cn1nnnc1SCC1=C(C(=O)O)N2C(=O)[C@@H](NC(=O)Cc3cccs3)[C@H]2SC1 [B] | 64 µg/mL (≈ 120 µM) | 128 µg/mL (≈ 239 µM) | 32 µg/mL (≈ 59.9 µM) | 16 µg/mL (≈ 29.9 µM) | 0.5 µg/mL (≈ 0.935 µM) | 1 µg/mL (≈ 1.87 µM) | 64 µg/mL (≈ 120 µM) | 4 µg/mL (≈ 7.48 µM) | 2 µg/mL (≈ 3.74 µM) | 0.5 µg/mL (≈ 0.935 µM) | 32 µg/mL (≈ 59.9 µM) | > 128 µg/mL | 8 µg/mL (≈ 15 µM) | 4 µg/mL (≈ 7.48 µM) | 8 µg/mL (≈ 15 µM) | 64 µg/mL (≈ 120 µM) | > 128 µg/mL | > 128 µg/mL | > 128 µg/mL | 4 µg/mL (≈ 7.48 µM) | MIC [11, 28]: 4 µg/mL (≈ 7.48 µM); MIC ([12]; strain 76, resistant strain): 0.5 µg/mL (≈ 0.935 µM); MIC ([12]; strain C.L., sensitive strain): 1 µg/mL (≈ 1.87 µM); MIC [13]: 4 µg/mL (≈ 7.48 µM); MIC [14, 29]: > 128 µg/mL; MIC [14, 30]: > 128 µg/mL; MIC [15, 31]: 1 µg/mL (≈ 1.87 µM); MIC [15, 32]: 0.5 µg/mL (≈ 0.935 µM); MIC [16, 33]: > 128 µg/mL; MIC [16, 34]: > 128 µg/mL; MIC [17]: 2 µg/mL (≈ 3.74 µM); MIC [18, 35]: > 128 µg/mL; MIC [18, 36]: 0.5 µg/mL (≈ 0.935 µM); MIC [19, 37]: 2 µg/mL (≈ 3.74 µM); MIC [19, 38]: 4 µg/mL (≈ 7.48 µM); MIC [19, 39]: 8 µg/mL (≈ 15 µM) |
